Results as given in patent US20020054872A1, “Peptides for the treatment of systemic lupus erythematosus and methods of treating systemic lupus erythematosus” (priority 1997, published 2002).
Residues, ends and D or L forms follow the SMILES beside them.

Assays:
[1] = system: B3 human anti-DNA antibody; test: Direct binding ELISA of B3 to laminin peptides; settings: direct binding ELISA test after two (2) hours
Method: (§1) The C72 murine anti-DNA antibody has been derived from (NZB×NZW)F1 lupus mice by the hybridoma technique as described in Eilat D. et al J. Immunol. […] The monoclonal anti-DNA antibodies DIL6 and B3 were derived from lupus patients by hybridoma technique as described in Ehrenstein M. R. et al J. Clin. Invest. (1994) 93 1787-1799 and Ehrenstein M. R. et al Kidney Inter. (1995) 48 705-711.
(§2) Wells were coated with 10 μg/ml of the peptides, blocked with 1% BSA (bovine serum albumin) in PBS (pH 7,4), reacted with appropriately diluted serum or urine samples or monoclonal antibodies, incubated with anti-human or anti-mouse immunoglobulin enzyme conjugated to alkaline phosphatase and detected by addition of substrate (Sigma 100 Phosphatase Substrate Tablets) and color development using an Organon Teknika Microwell System spectrometer at wavelength of 405 nm.
The human monoclonal anti-DNA antibodies DIL 6 and B3 were derived from lupus patients by the hybridoma technique. […] In FIGS. 3 and 4, the peptides are referred to as denoted above or as follows; AS30 is R27, AS19 is R35 AS35 is R26, AS17 is R28 and AS6 is R18.
(§3) The peptides of the present invention were tested for their ability to bind directly with C72 murine anti-DNA antibodies and B3 human anti-DNA antibodies according to the method described hereinabove.

C72 anti-DNA antibody = test: Competitive inhibition of C72 binding to R38 (5100); parameters: species or system mouse; settings: concentration of competitive inhibitor, ELISA
Text: A competitive inhibition study compared how each of the peptides competes with R38 (5100) for binding to the C72 anti-DNA antibody. Conducted according to the methods described hereinabove, the results of the study are disclosed in Table 4 below and are further elucidated by reference to FIG. 10.

[2] = system: C72 murine anti-DNA antibody; test: Direct binding ELISA of C72 to laminin peptides; parameters: species or system mouse; settings: direct binding ELISA test after one (1) hour
Method: as §1, §2
The interaction of the C72 murine anti-DNA antibody with laminin peptides was analyzed by ELISA as described above. The C72 conditioned medium was diluted in PBS in various dilutions.
as §3

CC[C@H](C)[C@H](NC(=O)[C@H](CC(N)=O)NC(=O)[C@@H](NC(=O)[C@H](CC(=O)O)NC(=O)[C@H](CO)NC(=O)[C@H](CCC(N)=O)NC(=O)[C@@H](NC(=O)[C@H](CCCCN)NC(=O)[C@H](Cc1ccc(O)cc1)NC(=O)CNC(=O)[C@H](CCC(=O)O)NC(=O)[C@@H](N)CCCCN)C(C)C)C(C)C)C(=O)N[C@H](C(=O)N[C@@H](CC(C)C)C(=O)N[C@@H](CCC(=O)O)C(=O)N[C@@H](Cc1ccccc1)C(=O)N[C@@H](CCCNC(=N)N)C(=O)N[C@H](C(=O)N[C@@H](CO)C(=O)N[C@@H](CO)C(=O)N[C@@H](CCC(N)=O)C(=O)O)[C@@H](C)O)[C@@H](C)O [Peptide 5300] (H-KEGYKVQSDVNITLEFRTSSQ-OH; N-terminus and C-terminus assumed)
B3 Binding [1]: 0.03 O.D.
50% Inhibition of C72 binding to mouse R38 (5100) (C72 anti-DNA antibody): 85 µg/mL
C72 Binding [2]: 0.03 O.D.
